Assay results published in BindingDB's records for doi:10.1021/acsmedchemlett.6b00243 (Amgen, 2016).

Molecular target: Sodium channel protein type 5 subunit alpha (Homo sapiens, UniProt Q14524)
Experiment: Inhibition of human Nav1.5 expressed in HEK293 cells assessed as inhibition of sodium current at holding potential of -125 mV measured for 3 to 5 mins by whole cell voltage clamp method

Sequence of Sodium channel protein type 5 subunit alpha (Q14524 whole entry): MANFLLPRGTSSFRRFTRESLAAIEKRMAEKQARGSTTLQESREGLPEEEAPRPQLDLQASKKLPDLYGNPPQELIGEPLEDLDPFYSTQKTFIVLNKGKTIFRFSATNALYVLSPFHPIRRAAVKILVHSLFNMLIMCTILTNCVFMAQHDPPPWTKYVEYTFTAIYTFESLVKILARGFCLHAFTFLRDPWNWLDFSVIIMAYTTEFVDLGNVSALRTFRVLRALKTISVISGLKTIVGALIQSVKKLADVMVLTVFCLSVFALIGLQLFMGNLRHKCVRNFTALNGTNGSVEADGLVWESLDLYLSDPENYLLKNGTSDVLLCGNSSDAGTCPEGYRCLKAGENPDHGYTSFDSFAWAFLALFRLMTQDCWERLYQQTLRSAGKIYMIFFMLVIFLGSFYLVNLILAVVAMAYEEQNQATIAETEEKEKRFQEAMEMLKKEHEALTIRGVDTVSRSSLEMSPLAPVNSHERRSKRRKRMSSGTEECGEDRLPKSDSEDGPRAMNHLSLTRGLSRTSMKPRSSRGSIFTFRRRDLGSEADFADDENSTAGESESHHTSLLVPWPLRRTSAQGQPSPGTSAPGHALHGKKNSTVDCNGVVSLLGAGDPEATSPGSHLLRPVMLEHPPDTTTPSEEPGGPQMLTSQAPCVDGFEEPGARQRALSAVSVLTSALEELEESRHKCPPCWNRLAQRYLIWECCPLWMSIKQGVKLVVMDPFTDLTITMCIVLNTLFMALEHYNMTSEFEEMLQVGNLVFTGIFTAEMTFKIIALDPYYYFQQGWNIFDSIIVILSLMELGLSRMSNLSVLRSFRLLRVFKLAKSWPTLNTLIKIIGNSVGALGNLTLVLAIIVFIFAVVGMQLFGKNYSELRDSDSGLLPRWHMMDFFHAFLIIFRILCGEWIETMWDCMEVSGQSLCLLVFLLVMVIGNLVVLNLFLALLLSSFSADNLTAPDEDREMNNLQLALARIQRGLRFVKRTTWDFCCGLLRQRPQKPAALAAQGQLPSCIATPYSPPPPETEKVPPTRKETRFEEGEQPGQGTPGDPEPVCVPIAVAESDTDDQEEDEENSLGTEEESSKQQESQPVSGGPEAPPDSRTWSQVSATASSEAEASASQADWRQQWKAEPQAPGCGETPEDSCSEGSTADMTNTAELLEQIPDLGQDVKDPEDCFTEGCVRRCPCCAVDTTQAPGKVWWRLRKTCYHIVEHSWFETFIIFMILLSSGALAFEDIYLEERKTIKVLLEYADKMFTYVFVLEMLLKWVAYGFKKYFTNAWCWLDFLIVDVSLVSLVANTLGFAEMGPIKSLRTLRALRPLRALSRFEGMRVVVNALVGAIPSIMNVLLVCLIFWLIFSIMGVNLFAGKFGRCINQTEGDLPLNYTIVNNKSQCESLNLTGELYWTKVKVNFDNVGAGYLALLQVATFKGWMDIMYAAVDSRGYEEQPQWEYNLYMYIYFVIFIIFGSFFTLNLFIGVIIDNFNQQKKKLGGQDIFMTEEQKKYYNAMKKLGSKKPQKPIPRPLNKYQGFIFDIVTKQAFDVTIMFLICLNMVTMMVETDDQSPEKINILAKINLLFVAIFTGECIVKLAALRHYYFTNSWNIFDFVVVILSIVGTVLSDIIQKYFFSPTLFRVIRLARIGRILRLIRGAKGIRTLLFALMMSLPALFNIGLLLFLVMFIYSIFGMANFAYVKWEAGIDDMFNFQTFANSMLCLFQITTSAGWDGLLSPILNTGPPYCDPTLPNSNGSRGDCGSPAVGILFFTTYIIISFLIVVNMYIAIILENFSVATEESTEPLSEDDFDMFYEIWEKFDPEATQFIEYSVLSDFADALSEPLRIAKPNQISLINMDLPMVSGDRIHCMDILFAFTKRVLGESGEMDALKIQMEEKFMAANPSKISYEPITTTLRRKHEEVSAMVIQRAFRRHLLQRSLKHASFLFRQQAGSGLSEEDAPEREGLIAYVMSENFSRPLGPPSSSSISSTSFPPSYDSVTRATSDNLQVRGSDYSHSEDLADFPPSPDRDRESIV

Row | SMILES | IC50
1 | COc1cc(C(F)(F)F)ccc1-c1cnnc2cc(S(=O)(=O)Nc3nccs3)ccc12 [US9012443, 259] | > 30 µM
2 | COc1cc(C(F)(F)F)ccc1-c1n[nH]c(=O)c2cc(S(=O)(=O)Nc3nccs3)ccc12 [US9012443, 293] | > 30 µM
